From publication PMC10247784, “Physiological activation of human and mouse bitter taste receptors by bile acids” (Communications Biology, 2023)

Target: T1, mouse Tas2r126 (Mus musculus, UniProt P59532)
T1 construct: expressed in transfected cells; host or cells: HEK293T-Gα16gust44
T1 sequence (P59532 1-308): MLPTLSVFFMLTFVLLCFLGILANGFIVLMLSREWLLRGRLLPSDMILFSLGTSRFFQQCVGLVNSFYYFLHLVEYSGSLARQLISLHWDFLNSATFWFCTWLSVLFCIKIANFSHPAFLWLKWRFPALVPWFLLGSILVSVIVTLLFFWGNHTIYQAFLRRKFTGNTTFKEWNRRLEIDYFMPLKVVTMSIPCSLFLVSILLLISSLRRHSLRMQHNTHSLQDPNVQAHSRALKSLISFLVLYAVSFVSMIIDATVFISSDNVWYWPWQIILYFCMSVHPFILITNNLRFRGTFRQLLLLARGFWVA
Experiment: Calcium imaging assay (FLIPR), HEK293T-Gα16gust44 cells transfected with mouse Tas2r126
Format: cell-based
Details: for Δ F/F: Tas2r126
Description: This set of bile acids was chosen because of their commercial availability in high purities, their diversity within the class of bile acids and their previous detection and quantitation in human blood. Stock solutions were prepared in DMSO.
As basal growth medium for the HEK293T-Gα16gust44 cell line[17],[59] served Dulbecco’s modified eagle medium (DMEM) (Thermo Fisher Scientific, Darmstadt, Germany) supplemented with 10 % fetal bovine serum (Sigma-Aldrich, Steinheim, Germany), 2 mM L-glutamine (Sigma-Aldrich, Steinheim, Germany), 100 units/ml penicillin (Sigma Aldrich, Steinheim, Germany) and 100 µg/ml streptomycin (Sigma Aldrich, Steinheim, Germany). Growth conditions were 37 °C, 5 % CO2 and saturated air-humidity[60].
HEK293T-Gα16gust44 cells were seeded on poly-D-lysine (10 µg/ml) coated 96-well plates to reach a confluence of 40-60 % the next day. For transient transfection 150 ng of plasmid DNA containing the receptor of interest and 0.3 µl lipofectamine 2000 (Thermo Fisher Scientific, Darmstadt, Germany) per well were used and transfection took place according to the manual of lipofectamine 2000. […] The empty vector DNA (mock) was transfected as negative control[14],[41].
Cells were loaded using the calcium-sensitive fluorescent dye Fluo-4-AM (Abcam, Cambridge, Great Britain) in the presence of 2.5 mM probenecid (Sigma-Aldrich, Steinheim, Germany) the day after transfection[13],[41]. 1 h after loading, cells were washed with C1 buffer using a BioTek Cell Washer, incubated in the dark for half an hour and washed again. For automated agonist application and measurement of fluorescence changes, a FLIPR^TETRA device (Molecular Devices, San José, United States) was used. Viability of cells was tested by application of 100 nM Somatostatin 14 (Bachem, Bubendorf, Switzerland)[42].
Measured data were negative control corrected by subtracting the signal of the mock-transfected cells and exported to Microsoft Excel using the FLIPR software ScreenWorks 4.2. In Microsoft Excel software, standardization of maximum fluorescence intensities to the basal fluorescence and normalization to the buffer-only control was done to calculate the relative fluorescence changes (ΔF/F).
Initial screening experiments performed in duplicate wells were confirmed by at least one replication and representative traces were selected for display. All dose-response relationships were determined by three independent experiments (biological replicates) performed in duplicates (technical replicates). Threshold concentrations, defined as lowest substance concentrations leading to statistically significant elevated fluorescence changes in receptor-transfected cells compared with empty vector-transfected cells, were determined using SigmaPlot with Student’s t-test to evaluate statistical significance (p < 0.01).

C[C@H](CCC(=O)NCC(=O)O)[C@H]1CC[C@H]2[C@@H]3[C@H](O)C[C@@H]4C[C@H](O)CC[C@]4(C)[C@H]3C[C@H](O)[C@]12C [Glycocholic Acid, glycocholic acid]
Δ F/F (conc. 0,01 mM): 0.008892 | Δ F/F (conc. 0,1 mM): 0.01338 | Δ F/F (conc. 0,03 mM): 0.009319 | Δ F/F (conc. 0,3 mM): 0.02767 | Δ F/F (conc. 0,001 mM): 0.01077 | Δ F/F (conc. 1 mM): 0.17 | Δ F/F (conc. 0,003 mM): 0.01208 | RLU (Time 0 s): 0 RLU | RLU (Time 2 s): -8.029 RLU | RLU (Time 4 s): 1.1384 RLU | RLU (Time 6 s): 10.4148 RLU | RLU (Time 8 s): -13.1228 RLU | RLU (Time 12 s): 17.4885 RLU | RLU (Time 14 s): -0.7257 RLU | RLU (Time 16 s): -10.5283 RLU | RLU (Time 18 s): 16.8146 RLU | RLU (Time 18.781 s): 23.6211 RLU | RLU (Time 20.781 s): -40.338 RLU | RLU (Time 22.781 s): 22.3326 RLU | RLU (Time 24.781 s): 63.7084 RLU | RLU (Time 26.781 s): 76.1804 RLU | RLU (Time 28.781 s): 137.207 RLU | RLU (Time 30.781 s): 214.617 RLU | RLU (Time 32.781 s): 318.834 RLU | RLU (Time 34.781 s): 384.223 RLU | RLU (Time 36.781 s): 455.203 RLU | RLU (Time 38.781 s): 531.38 RLU | RLU (Time 40.781 s): 571.264 RLU | RLU (Time 42.781 s): 599.999 RLU | RLU (Time 44.781 s): 648.8 RLU | RLU (Time 46.781 s): 709.576 RLU | RLU (Time 48.781 s): 742.486 RLU | RLU (Time 50.781 s): 750.019 RLU | RLU (Time 52.781 s): 771.673 RLU | RLU (Time 54.781 s): 762.339 RLU | RLU (Time 56.781 s): 801.528 RLU | RLU (Time 58.781 s): 778.328 RLU | RLU (Time 60.781 s): 814.918 RLU | RLU (Time 62.781 s): 813.898 RLU | RLU (Time 64.781 s): 822.442 RLU | RLU (Time 66.781 s): 857.883 RLU | RLU (Time 68.781 s): 851.231 RLU | RLU (Time 70.781 s): 849.562 RLU | RLU (Time 72.781 s): 871.931 RLU | RLU (Time 74.781 s): 863.674 RLU | RLU (Time 76.781 s): 844.593 RLU | RLU (Time 78.781 s): 886.207 RLU | RLU (Time 80.781 s): 865.546 RLU | RLU (Time 82.781 s): 883.065 RLU | RLU (Time 84.781 s): 898.032 RLU | RLU (Time 86.781 s): 896.748 RLU | RLU (Time 88.781 s): 900.918 RLU | RLU (Time 90.781 s): 874.944 RLU | RLU (Time 92.781 s): 885.691 RLU | RLU (Time 94.781 s): 894.456 RLU | RLU (Time 96.781 s): 901.176 RLU | RLU (Time 98.781 s): 886.538 RLU | RLU (Time 100.781 s): 892.555 RLU | RLU (Time 102.781 s): 881.874 RLU | RLU (Time 104.781 s): 894.645 RLU | RLU (Time 106.781 s): 887.982 RLU | RLU (Time 108.781 s): 886.297 RLU | RLU (Time 110.781 s): 884.059 RLU | RLU (Time 112.781 s): 887.824 RLU | RLU (Time 114.781 s): 848.107 RLU | RLU (Time 116.781 s): 861.685 RLU | RLU (Time 118.781 s): 828.869 RLU | RLU (Time 120.781 s): 825.037 RLU | RLU (Time 122.781 s): 836.581 RLU | RLU (Time 124.781 s): 866.188 RLU | RLU (Time 126.781 s): 858.575 RLU | RLU (Time 128.781 s): 826.803 RLU | RLU (Time 130.781 s): 818.964 RLU | RLU (Time 132.781 s): 847.33 RLU | RLU (Time 134.781 s): 852.99 RLU | RLU (Time 136.781 s): 809.769 RLU | RLU (Time 137.563 s): 804.878 RLU | RLU (Time 143.563 s): 793.514 RLU | RLU (Time 149.563 s): 748.056 RLU | RLU (Time 155.563 s): 797.54 RLU | RLU (Time 161.563 s): 777.219 RLU | RLU (Time 167.563 s): 736.981 RLU | RLU (Time 173.563 s): 734.04 RLU | RLU (Time 179.563 s): 691.98 RLU | RLU (Time 185.563 s): 705.69 RLU | RLU (Time 191.563 s): 730.013 RLU | RLU (Time 197.563 s): 719.476 RLU | RLU (Time 203.563 s): 676.213 RLU | RLU (Time 209.563 s): 680.042 RLU | RLU (Time 215.563 s): 670.332 RLU | RLU (Time 221.563 s): 696.914 RLU | RLU (Time 227.563 s): 687.176 RLU | RLU (Time 233.563 s): 674.703 RLU | RLU (Time 239.563 s): 658.755 RLU | RLU (Time 245.563 s): 686.39 RLU | RLU (Time 293.563 s): 673.116 RLU | RLU (Time 299.563 s): 656.796 RLU | RLU (Time 305.563 s): 663.675 RLU | RLU (Time 311.563 s): 633.551 RLU | RLU (Time 317.563 s): 673.002 RLU | RLU (Time 323.563 s): 666.023 RLU | RLU (Time 329.563 s): 652.752 RLU | RLU (Time 335.563 s): 658.256 RLU | RLU (Time 341.563 s): 702.617 RLU | RLU (Time 347.563 s): 659.503 RLU | RLU (Time 353.563 s): 654.507 RLU | RLU (Time 359.563 s): 650.344 RLU | Activation threshold concentration Tas2r126 (p < 0.01 vs empty vector): 100 µM
